# Laboratory results reported in publication PMC6562672, “Dose-Dependent Sorafenib-Induced Immunosuppression Is Associated with Aberrant NFAT Activation and Expression of PD-1 in T Cells” (Cancers, 2019).
# Assays:
# PD-1 = assay: PD-1, CD8 and CD25 expression on T cells by imaging flow cytometry; assay type: cell-based, human
# Experimental: PBMCs were allowed to ‘recover’ in AIM-V medium (Thermo Fisher Scientific) at 37 °C, 5% CO2 in a humidified atmosphere overnight. 2 × 10^6 cells were treated with 0–10 µM sorafenib for the durations specified in the results section. If the experimental conditions required T cell stimulation, samples were co-treated (stimulated) with 1 µg/mL anti-CD3 and 1 µg/mL anti-CD28 for 2 h. Following treatment, PBMCs were placed on ice to stop drug action and immunophenotyped for CD4, CD8, CD25, and PD-1 (CD279). NFAT1 was detected by indirect labeling. Antibodies were diluted in permeabilization wash buffer (PWB) consisting of 0.1% Triton-X-100 in FCM Buffer (1× phosphate buffered saline (PBS) + 0.5%BSA). The primary Rabbit polyclonal NFAT1 antibody was diluted 1:50 in PWB. Following this, 1:200 dilution of secondary AF647 conjugated F(ab’)2 fragment donkey anti rabbit IgG antibody (Jackson ImmunoResearch Laboratories Inc., West Grove, PA, USA) was added. Just prior to data acquisition on the ImageStream, DAPI was added to all samples (0.5 µg/mL final concentration), to stain the nucleus.
# Imaging flow cytometry acquisition, compensation, and analysis was performed on an imaging flow cytometer (ImagestreamX Mk-II; Amnis, part of MilliporeSigma, Seattle, WA, USA) as described previously. Following compensation for spectral overlap, image analysis was performed with IDEAS® software (Amnis, Seattle, WA, USA). To assess nuclear NFAT1 translocation, the corresponding nuclear image and NFAT1 image of each cell was compared and a Similarity Score (SS) was assigned for individual cells using published methods (Figure S3).
# [1] = Treatment toxicity in WHV-infected woodchucks (general performance, CBC, biochemistry); assay type: in vivo, woodchuck (Marmota monax)
# Experimental: General performance statuses of animals were evaluated such as moving activity, appetite, defecation, urination, and weight changes regularly. In addition, CBC and blood biochemistry were measured two times per month during the course of experiment by ProCyte Hematology and Catalyst Chemistry Analyzers (IDEXX, Hoofddorp, The Netherlands).
# HCC [2] = assay: Efficacy against HCC in WHV-infected woodchucks (ultrasound); assay type: in vivo, woodchuck (Marmota monax); conditions: for median time from first detection of tumor to 2 cm HCC: placebo 55 days; for median time to tumor development: long-term, placebo 295 days, p = 0.35
# Source text: Male and female eastern woodchucks (Marmota monax) from two different institutes were used. WHV-infected woodchucks from Cornell University (15) were used for a long-term efficacy study, and six woodchucks in a short-term efficacy study were bred at Roswell Park Comprehensive Cancer Institute Center. Woodchucks were infected at 3–5 days of age with dilute serum from standard infectious pools derived from WHV carriers. Pups were inoculated with diluted, pooled serum from WHV^+ animals. The inoculum was prepared from pooled serum of WHV^+ animals that is diluted aseptically 1:10 in PBS. In a biological safety cabinet, each pup is manually restrained and 100 microliters of inoculum is injected subcutaneously in the intrascapular region. Chronic infection was verified at approximately 3, 6, and 9 months of age by WHV viral titer status. Once the pups are confirmed WHV positive, they were monitored by ultrasound (Philips HDI 5000, Amsterdam, The Netherlands) to confirm the presence of HCC.
# In total, 21 animals bearing one or more liver tumors were included in this study for 2 separate experiments. While receiving sorafenib or placebo, animals were monitored with ultrasound every 2 weeks for tumor development greater than 5 mm in diameter. […] Tumor volume was calculated using this formula: volume = shortest axis^2 × longest axis × 0.52.
# All WHV carrier woodchucks were randomly divided into three groups such as placebo, low dose (2.5 mg/kg/day), and high dose (5.0 mg/kg/day) groups (n = 5 animals/group) in a long-term efficacy study based on clinical and preclinical studies. Also, a compartmental pharmacokinetic (PK) model was used to select the two lowest doses that can achieve exposure sufficient to inhibit pharmacodynamic targets. Experimental woodchucks were treated with placebo, 2.5 mg/kg, or 5.0 mg/kg sorafenib once daily with a 5 days on and 2 days off schedule. Animals were dosed orally until tumor development. Another experiment was performed with the low (2.5 mg/kg/day) and high (5.0 mg/kg/day) dose groups (n = 3 animals/group) to see the efficacy of short-term (90 days treatment) usage of sorafenib. The primary endpoint of the in vivo study was disease free survival (DFS), and DFS was measured from the date of randomization until the date of any liver tumor detection. The secondary endpoint was tumor size over 2 cm, which was measured from the date of first tumor detection. All experimental protocols were approved by IACUC.
# HCC [3] = assay: Tumor histology: H&E necrosis and CD3 immunohistochemistry; assay type: in vivo, woodchuck (Marmota monax)
# Experimental: Tumor specimens were diagnosed as HCC based on the established classification of neoplastic liver lesions. After standard processing and embedding in paraffin, 4 μm sections were prepared, deparaffinized, stained with hematoxylin-eosin (H&E), studied with a Zeiss Axio Imager A1 microscope (Carl Zeiss, Oberkochen, Germany) by a pathologist blinded to the treatment arm. Morphometric study of areas of necrosis was compared to the size of the tumor sections by counting view fields at medium objective magnification. IHC staining with mouse anti-rat CD3 (BD Biosciences, San Jose, CA, USA) was performed on […] paraffin sections of posttreatment tumor tissues obtained after tumor reached over 2 cm. Images of at least 7 randomly selected fields (unit area of each field, 0.34 mm^2) were captured by observers blinded to sample identity. Identical exposure times and image settings were used within each experiment. Images were analyzed with ImageJ software (http://rsb.info.nih.gov/ij, Bethesda, MD, USA).
smiles,measurement,setting,value
"CNC(=O)c1cc(Oc2ccc(NC(=O)Nc3ccc(Cl)c(C(F)(F)F)c3)cc2)ccn1 [sorafenib, Sorafenib]",proportion of CD4+CD25bright T cells,"PD-1; dose-dependent manner, % of total CD4+ cells",decrease
same,CD8 expression in PD-1+ cells,"PD-1; high dose (10 µM), PD-1+ T cells",decreased
same,NFAT1 activation and decreased expression of CD8 in PD-1 negative T cells,"PD-1; high dose (10 µM), PD-1 negative T cells",not observed
same,proportion of PD-1-expressing CD8+ and CD4+ T cells,"PD-1; high dose (10 µM), without exogenous stimulatory factors",increased
same,"general performance change (moving activity, appetite, defecation, urination, weight changes)","[1]; 2.5 and 5.0 mg/kg/day oral, all treatment groups",not detected
same,CBC and biochemistry analyses among the three groups,"[1]; end of experiment, placebo vs 2.5 vs 5.0 mg/kg/day",no statistical difference
same,median time from first detection of tumor to 2 cm HCC,HCC [2]; 2.5 mg/kg,111 days
same,median time from first detection of tumor to 2 cm HCC,HCC [2]; 5 mg/kg,42 days
same,median time to tumor development,HCC [2]; high dose 5.0 mg/kg/day,351 days
same,tumor growth delay,"HCC [2]; high dose vs placebo, p = 0.5",failed to show any tumor growth delay effect
same,animals that developed HCC,"HCC [2]; long-term treatment, regardless of doses of sorafenib (15 woodchucks incl. placebo)",100%
same,tumor size when first detected by ultrasound,HCC [2]; low dose 2.5 mg/kg/day compared to placebo and high dose groups,smaller
same,median time to tumor development,HCC [2]; low dose 2.5 mg/kg/day,384 days
same,tumor growth delay,"HCC [2]; low dose vs placebo and high dose, p = 0.024",significant tumor growth delay
same,tumor growth delay with low dose compared to high dose,"HCC [2]; short-term usage, 90 days, n = 3/group",not achieved
same,prevention of HCC and inhibition of WHV replication,HCC [2]; sorafenib treatments compared to placebo,did not prevent HCC or inhibit WHV replication
same,necrotic change of HCC (H&E),"HCC [3]; high dose vs placebo, tumor over 2 cm, p = 0.02",significantly large necrotic change
same,necrotic change of HCC (H&E),"HCC [3]; high vs low dose, p = 0.07",no statistical difference
same,CD3+ cell infiltration in tumors,HCC [3]; low dose compared to high dose,More CD3+ cells
same,CD3+ cell infiltration in tumors,HCC [3]; low dose vs placebo,no statistical difference
